Patent US5925618A, “Peptides useful as somatostatin antagonists” (American Cyanamid Company, priority 1998, dated 1999)
Square brackets hold non-standard residues; d marks the D form. Peptide text beside a SMILES is read from it.

Columns and labels:
[1] = molecular target: T1, S. cerevisiae (yeast) cells expressing SRIF receptors (Rattus norvegicus, UniProt P30680); assay: Yeast bioassay for SRIF antagonist activity (LY364 cells growing in response to SRIF, zone of growth inhibition); assay type: cell-based; conditions: Sample type 4th iteration; 10 μL of 5 mg/mL on disk, SRIF 10 nM, read after 3 days
T1 construct: expressed in transfected cells; host or cells: S. cerevisiae strain LY364
T1 sequence (P30680 whole entry): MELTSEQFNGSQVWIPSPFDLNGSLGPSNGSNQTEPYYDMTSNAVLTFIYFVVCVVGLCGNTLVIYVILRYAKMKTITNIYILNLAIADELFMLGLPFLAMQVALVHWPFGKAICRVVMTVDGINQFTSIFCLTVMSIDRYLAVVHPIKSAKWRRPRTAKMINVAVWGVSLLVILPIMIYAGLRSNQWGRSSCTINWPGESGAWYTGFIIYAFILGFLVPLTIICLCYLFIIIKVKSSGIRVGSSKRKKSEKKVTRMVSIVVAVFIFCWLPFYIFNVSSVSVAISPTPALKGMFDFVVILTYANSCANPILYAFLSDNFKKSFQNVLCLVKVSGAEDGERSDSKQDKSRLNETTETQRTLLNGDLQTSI
From the text: SRIF antagonist assay using S. cerevisiae (yeast) cells expressing SRIF receptors that grow in response to SRIF
Agar plates containing LY364 cells that are growing in the presence of added SRIF are the basis for a sensitive SRIF antagonist assay, whereby zones of growth inhibition result from the addition of SRIF antagonists to the surface of the agar plate (see L. A. Price, et al., Molecular and Cellular Biology, 15, 6188-6195, 1995, incorporated herein by reference).
In this assay, LY364 cells are grown overnight in 2 mL of synthetic complete(SC) medium (3.4 g/L YNB without amino acids and ammonium sulfate, 10 g/L ammonium sulfate and 1.4 g/L CSM-ura-trp) with glucose (2%) and without uracil and tryptophan. These cells are washed and cultured for 4 to 8 hours in 5 mL of SC medium with lactate (3%) and without uracil and tryptophan, and finally grown overnight in 5 mL of SC medium with galactose (2%) and without uracil and tryptophan. Molten (50° C.) SC agar medium with galactose (2%) and without uracil, tryptophan and histidine is adjusted to pH 6.8 with KOH, mixed with 2×10^4 cells/mL and SRIF (S-14, 10 nM) and poured into square (20×20 cm) petri dishes. Sterile filter disks are placed on the surface of the agar, and saturated with 10 μL of water or DMSO containing 5 mg/mL test peptides. After three days, the plates display a uniform cloudy background of LY264 cells growing in response to the added SRIF. […] This zone is quantified by measuring its diameter (mm), which varies according to the potency of the SRIF antagonist. Those peptides or mixtures of peptides displaying the largest zones of inhibition are further characterized.
Values are compared among samples in the same experiment, as the degree of yeast growth varies somewhat from assay to assay. For the first five sample types, in which progressively less complex mixtures of peptides are found, this assay is the primary determining factor in choosing which samples form the basis of subsequent syntheses.
Plates are read after 3 days. Samples shown in Table I in bold type are chosen for further synthesis. In Table I, all amino acids are D-amino acids and dashes represent undefined amino acid residues.

[2] = system: Male Sprague-Dawley rats; assay: Serum growth hormone levels in anaesthetized rats (peptide 1, BIM 23014C); assay type: in vivo, rat
Experimental: Evaluation in anaesthetized rats. Male Sprague-Dawley rats are anaesthetized with Sagatal and fitted so as to allow efficient intravenous treatment with control and test compounds as well as frequent blood sampling. Blood samples are tested for growth hormone (GH) levels by radioimmunoassay. Thirty minutes after the initiation of blood sampling, rats are given 5 μg, 25 μg or 50 μg of peptide 1.

[3] = molecular target: T2, rat SSTR2 (Rattus norvegicus, UniProt P30680); assay: cAMP accumulation in forskolin-stimulated GH4 C1/SSTR2 cells; assay type: cell-based; conditions: for Emax: GH4-C1, test peptide 2 μM, read-out: cAMP Assay, Intrinsic activity (percent reversal of SSTR2 activation by SRIF or MK678)
T2 construct: expressed in transfected cells; host or cells: GH4C1 rat pituitary tumor cells
T2 sequence (P30680 whole entry): as above
From the text: A primary effect of SRIF upon mammalian cells is the reduction of cyclic adenosine 3',5'-monophosphate(cAMP) levels, via inhibition of adenylyl cyclase. This is the basis of a common assay for SRIF agonists and antagonists, whereby SRIF agonists reduce artificially stimulated cAMP levels, and SRIF antagonists reverse the effect of SRIF. The rat pituitary tumor cell line GH4 C1 predominantly expresses SSTR2, and responds to SRIF and to forskolin, a stimulator of adenylate cyclase (see C. M. Eppler, et al., J. Biol. Chem., 267, 15603-15612, 1992, incorporated herein by reference). A highly sensitive assay for SRIF agonists and antagonists results from additionally transfecting GH4 C1 cells with the cloned rat SSTR2, (see L. A. Price, et al., Molecular and Cellular Biology, 15, 6188-6195, 1995, incorporated herein by reference). This increases the response to SRIF and provides a greater dynamic range for the measurement of SRIF antagonist activity.
Stimulation of cells. GH4 C1 /SSTR2 cells, grown in DMEM with 10% bovine serum, are released from a tissue culture dish by incubation for several minutes at 37° C. with PBS containing 0.5 mM EDTA. Cells are washed in induction buffer (PBS containing 100 μM IBMX (an inhibitor of cAMP breakdown) and 2 mM CaCl2) at room temperature, and resuspended at 2×10^6 /mL in induction buffer. Into each well of a 96-well tray are added 50 μL of a 2× concentration of stimulants in induction buffer. These include (at final concentration) 1.25 μM forskolin, 100 nM SRIF or 10 nM of the SSTR2-selective agonist MK678 and test peptides at various concentrations. To initiate stimulation of the cells, 50 μL (100,000) cells are added to each well, mixed by shaking 10 seconds on a plate shaker and placed at 37° C. for 15 minutes. Stimulation is arrested and cells are lysed by adding 15 μL 0.33N HCl to each well and incubating the plate for 30 minutes at 37° C. Samples are neutralized by addition of 15 μL 0.25N NaOH/50 mM Hepes pH 7.4. Baseline cAMP levels are determined in samples with no added forskolin or SRIF, and each treatment is performed in triplicate.
cAMP assay. To measure accumulated cAMP in the samples, a radioimmunoassay is employed. The scintillation proximity assay (SPA, Amersham, Arlington Heights, Ill.) allows the rapid measurement of ^125 I cAMP bound to a specific antibody without separating bound radioligand from free radioligand. Each of the following reagents (50 μL) are added per well in a 96-well tray: supernatants from the cell stimulation; ^125 I cAMP; SPA beads conjugated to monkey anti-rabbit IgG antibodies; and rabbit anti-cAMP antibodies. For the standard curve, known amounts of cAMP (0.2-12.8 pmol) are added in place of cell supernatants. The 96-well tray is sealed, shaken at room temperature overnight and measured for bound radioligand in a MicroBeta liquid scintillation counter (Wallac, Gaithersburg, Md.). The standard curve is determined for each experiment by performing a nonlinear regression (exponential decay) analysis of cpm measured for the cAMP standards vs. their log concentrations, and test sample values are determined by using Prism software (Graphpad Software Inc., San Diego, Calif.) and are shown in Table II and FIG. 1. FIG. I illustrates the antagonist activity of Peptide 1.
The intrinsic activity of an SRIF antagonist is the percent reversal of the SSTR2, activation by SRIF or MK678, wherein 0% is defined by cAMP levels in samples treated with forskolin plus SRIF or MK678 and 100% is the cAMP level measured after treatment with forskolin alone. Therefore, increased intrinsic activity of a test compound indicates increased antagonist activity of said test compound.
FIG. […]
An inverse agonist is a compound that is not only a pure antagonist (i.e. lacking agonist activity), but also blocks the constitutive activity of an unoccupied receptor. One indication of inverse agonist activity is the ability of a SRIF antagonist to increase cAMP levels in the absence of added SRIF. […]

[4] = forskolin stimulated cells, agonist alone or with 10 μM peptide 1

SMILES | Inhibition Zone [1] [mm] | Emax [3] [%] | further results
CC[C@@H](C)[C@@H](NC(=O)[C@@H](Cc1ccccc1)NC(=O)[C@@H](Cc1c[nH]cn1)NC(C)=O)C(=O)N[C@H](CCCNC(=N)N)C(=O)N[C@H](Cc1c[nH]c2ccccc12)C(=O)N[C@H](CCSC)C(N)=O [His Phe Ile Arg Trp Met] (Ac-[dH][dF][dI][dR][dW][dM]-NH2) | 18 | – | –
CC[C@@H](C)[C@@H](NC(=O)[C@@H](Cc1c[nH]c2ccccc12)NC(=O)[C@@H](CCCNC(=N)N)NC(=O)[C@H](NC(=O)[C@@H](Cc1ccccc1)NC(=O)[C@@H](Cc1c[nH]cn1)NC(C)=O)[C@H](C)CC)C(N)=O [His Phe Ile Arg Trp Ile] (Ac-[dH][dF][dI][dR][dW][dI]-NH2) | 16 | – | –
CC[C@@H](C)[C@@H](NC(=O)[C@@H](Cc1ccccc1)NC(=O)[C@@H](Cc1c[nH]cn1)NC(C)=O)C(=O)N[C@H](CCCNC(=N)N)C(=O)N[C@H](Cc1c[nH]c2ccccc12)C(=O)N[C@@H](C(N)=O)[C@H](C)O [His Phe Ile Arg Trp Thr] (Ac-[dH][dF][dI][dR][dW][dT]-NH2) | 14 | – | –
CC[C@@H](C)[C@@H](NC(=O)[C@@H](Cc1ccccc1)NC(=O)[C@@H](Cc1c[nH]cn1)NC(C)=O)C(=O)N[C@H](CCCNC(=N)N)C(=O)N[C@H](Cc1c[nH]c2ccccc12)C(=O)N[C@H](C)C(N)=O [His Phe Ile Arg Trp Ala] (Ac-[dH][dF][dI][dR][dW][dA]-NH2) | 15 | – | –
CC(C)[C@@H]1NC(=O)[C@H](CCCCN)NC(=O)[C@@H](Cc2c[nH]c3ccccc23)NC(=O)[C@H](Cc2ccc(O)cc2)NC(=O)[C@@H](NC(=O)[C@H](N)Cc2ccc3ccccc3c2)CSSC[C@@H](C(=O)N[C@H](C(N)=O)[C@@H](C)O)NC1=O [BIM 23014C, reference compound] | – | – | SGH ([2]; 5 μg peptide 1 group, 10 μg BIM 23014C at 60 min, sample 75 min): 7.0 ng/mL; SGH ([2]; 5 μg peptide 1 group, 60 min (time of 10 μg BIM 23014C dose)): 11.4 ng/mL; serum GH levels after SRIF agonist ([2]; 10 μg at 60 minutes): induces the expected reduction in serum GH levels; SGH ([2]; 25 μg peptide 1 group, 10 μg BIM 23014C at 60 min, sample 75 min): 6.8 ng/mL; SGH ([2]; 25 μg peptide 1 group, 60 min (time of 10 μg BIM 23014C dose)): 13.1 ng/mL; SGH ([2]; 50 μg peptide 1 group, 10 μg BIM 23014C at 60 min, sample 75 min): 3.5 ng/mL; SGH ([2]; 50 μg peptide 1 group, 60 min (time of 10 μg BIM 23014C dose)): 17.1 ng/mL
CC[C@@H](C)[C@@H](NC(=O)[C@@H](Cc1ccccc1)NC(=O)[C@@H](Cc1c[nH]cn1)NC(C)=O)C(=O)N[C@H](CCCNC(=N)N)C(=O)N[C@H](C)C(=O)N[C@H](Cc1ccccc1)C(N)=O [Peptide 6, h-f-i-r-a-f] (Ac-[dH][dF][dI][dR][dA][dF]-NH2) | – | 13.4 | –
CC(C)[C@@H]1NC(=O)[C@H](CCCCN)NC(=O)[C@@H](Cc2c[nH]c3ccccc23)NC(=O)[C@H](Cc2ccc(O)cc2)NC(=O)[C@H](C)N(C)C(=O)[C@H](Cc2ccccc2)NC1=O [MK678, reference compound] | – | – | cAMP ([3]; Forskolin 1.25 μM + MK 678 10 nM, no peptide 1): 0.91 pM per 4 × 10^4 cells; Maximum (cAMP level of agonist dose response) [3, 4]: 6.431; Minimum (cAMP level of agonist dose response) [3, 4]: 2.673

More lines, main results first:

Inhibition Zone [1] [mm] | Emax [3] [%] | SMILES | further results
16 | – | CC[C@@H](C)[C@@H](NC(=O)[C@@H](Cc1ccccc1)NC(=O)[C@@H](Cc1c[nH]cn1)NC(C)=O)C(=O)N[C@H](CCCNC(=N)N)C(=O)N[C@H](Cc1c[nH]c2ccccc12)C(=O)N[C@H](Cc1ccc(O)cc1)C(N)=O [His Phe Ile Arg Trp Tyr] (Ac-[dH][dF][dI][dR][dW][dY]-NH2) | –
15 | – | CC[C@@H](C)[C@@H](NC(=O)[C@@H](Cc1ccccc1)NC(=O)[C@@H](Cc1c[nH]cn1)NC(C)=O)C(=O)N[C@H](CCCNC(=N)N)C(=O)N[C@H](Cc1c[nH]c2ccccc12)C(=O)N[C@H](CC(N)=O)C(N)=O [His Phe Ile Arg Trp Asn] (Ac-[dH][dF][dI][dR][dW][dN]-NH2) | –
15 | – | CC[C@@H](C)[C@@H](NC(=O)[C@@H](Cc1ccccc1)NC(=O)[C@@H](Cc1c[nH]cn1)NC(C)=O)C(=O)N[C@H](CCCNC(=N)N)C(=O)N[C@H](Cc1c[nH]c2ccccc12)C(=O)N[C@H](CC(C)C)C(N)=O [His Phe Ile Arg Trp Leu] (Ac-[dH][dF][dI][dR][dW][dL]-NH2) | –
– | 46.7 | CC[C@@H](C)[C@@H](NC(=O)[C@@H](Cc1ccccc1)NC(=O)[C@@H](Cc1c[nH]cn1)NC(C)=O)C(=O)N[C@H](CCCNC(=N)N)C(=O)N[C@H](Cc1c[nH]c2ccccc12)C(=O)N[C@@H](Cc1ccccc1)C(N)=O [Peptide 18, h-f-i-r-w-F] (Ac-[dH][dF][dI][dR][dW]F-NH2) | –
– | 26.2 | CC[C@@H](C)[C@@H](NC(=O)[C@@H](Cc1ccccc1)NC(=O)[C@H](Cc1c[nH]cn1)NC(C)=O)C(=O)N[C@H](CCCNC(=N)N)C(=O)N[C@H](Cc1c[nH]c2ccccc12)C(=O)N[C@H](Cc1ccccc1)C(N)=O [Peptide 13, H-f-i-r-w-f] (Ac-H[dF][dI][dR][dW][dF]-NH2) | –
– | 44.1 | CC[C@@H](C)[C@@H](NC(=O)[C@@H](Cc1ccccc1)NC(=O)[C@@H](Cc1c[nH]cn1)NC(C)=O)C(=O)N[C@H](C)C(=O)N[C@H](Cc1c[nH]c2ccccc12)C(=O)N[C@H](Cc1ccccc1)C(N)=O [Peptide 5, h-f-i-a-w-f] (Ac-[dH][dF][dI][dA][dW][dF]-NH2) | –
– | 6.36 | CC(=O)N[C@H](Cc1c[nH]cn1)C(=O)N[C@H](Cc1ccccc1)C(=O)N[C@H](CCCNC(=N)N)C(=O)N[C@H](Cc1c[nH]c2ccccc12)C(=O)N[C@H](Cc1ccccc1)C(N)=O [Peptide 9, h-f-r-w-f] (Ac-[dH][dF][dR][dW][dF]-NH2) | –
